Test results reported in patent US11925195B2, “Synergistic nutritional compositions for treating cerebrovascular diseases” (CELAGENEX RESEARCH (INDIA) PVT. LTD., priority 2019, dated 2024).

What was measured:
Type in all cases: in vivo, Wistar Rats
[1] = Rat body weight in global ischemia reperfusion study; conditions: mean ± SEM, n = 6; for Body Weight, Basal: male Wistar rats; for Body Weight, Week 01: oral daily dosing (Standard 9.3 mg/kg, NBP 49.6 mg/kg, NR 31 mg/kg)
TNF alpha = experiment: Rat TNF alpha level after global ischemia reperfusion; conditions: oral 10 days (Std 9.3 mg/kg, NBP 49.6 mg/kg, NR 31 mg/kg); 30 mins global ischemia on 7th day, 72 hrs reperfusion; mean ± SEM, n = 6; I/R control 172.17 ± 6.35
[2] = Rat feed consumption in global ischemia reperfusion study; conditions: oral daily dosing (Standard 9.3 mg/kg, NBP 49.6 mg/kg, NR 31 mg/kg)
Interleukin - 6 = experiment: Rat Interleukin-6 level after global ischemia reperfusion; conditions: oral 10 days (Standard 9.3 mg/kg, NBP 49.6 mg/kg, NR 31 mg/kg); 30 mins global ischemia on 7th day, 72 hrs reperfusion; mean ± SEM, n = 6; I/R control 121.83 ± 1.65

## NC(=O)c1ccc[n+]([C@@H]2O[C@H](CO)[C@@H](O)[C@H]2O)c1.[Cl-] [Nicotinamide Riboside chloride (NR), nicotinamide riboside chloride]
[1]
  Body Weight, Basal: 215.00 ± 1.46 gm
  Body Weight, Week 01: 224.83 ± 1.08 gm
TNF alpha
  TNF alpha Level: 160.33 ± 4.79 pg/mL
[2]
  Feed Consumption, Week 01: 99.71 ± 1.04 gm
Interleukin - 6
  Interleukin - 6 Levels: 109.56 ± 0.27 pg/mL

## CCCCC1OC(=O)c2ccccc21 (racemic) [3-N-butylpthalide (NBP), 3-N-butylphthalide]
[1]
  Body Weight, Basal: 214.50 ± 1.12 gm
  Body Weight, Week 01: 224.50 ± 0.76 gm
TNF alpha
  TNF alpha Level: 132.00 ± 2.34 pg/mL
[2]
  Feed Consumption, Week 01: 99.57 ± 1.00 gm
Interleukin - 6
  Interleukin - 6 Levels: 85.39 ± 0.62 pg/mL
